In PubChem BioAssay (NCI):
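Following 48 hours of exposure in 96-well plates, responses at five concentrations were used to interpolate endpoints linearly. Abbreviation: GI50, concentration required for 50% inhibition of growth. TGI is the concentration that stops growth completely.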

Assays:
Experiment in all cases: growth of human tumour cells (NCI), 48 h
A549 NSCLC = test system: A549 NSCLC
HCC-2998 colon = test system: HCC-2998 colon
KM12 colon = test system: KM12 colon
NCI-H460 lung = test system: NCI-H460 lung
NCI/ADR-RES ovarian = test system: NCI/ADR-RES ovarian
OVCAR-5 ovarian = test system: OVCAR-5 ovarian
SF-268 CNS = test system: SF-268 CNS
SK-MEL-2 melanoma = test system: SK-MEL-2 melanoma
SK-MEL-28 melanoma = test system: SK-MEL-28 melanoma
SK-OV-3 ovarian = test system: SK-OV-3 ovarian

Row | SMILES | GI50 (A549 NSCLC) [µM] | TGI (A549 NSCLC) [µM] | GI50 (HCC-2998 colon) [µM] | TGI (HCC-2998 colon) [µM] | GI50 (KM12 colon) [µM] | TGI (KM12 colon) [µM] | GI50 (NCI-H460 lung) [µM] | TGI (NCI-H460 lung) [µM] | GI50 (NCI/ADR-RES ovarian) [µM] | TGI (NCI/ADR-RES ovarian) [µM] | GI50 (OVCAR-5 ovarian) [µM] | TGI (OVCAR-5 ovarian) [µM] | GI50 (SF-268 CNS) [µM] | TGI (SF-268 CNS) [µM] | GI50 (SK-MEL-2 melanoma) [µM] | TGI (SK-MEL-2 melanoma) [µM] | GI50 (SK-MEL-28 melanoma) [µM] | TGI (SK-MEL-28 melanoma) [µM] | GI50 (SK-OV-3 ovarian) [µM] | TGI (SK-OV-3 ovarian) [µM]
1 | C=[CH][Sn]([CH]=C)([O]c1cccc2cccnc12)[O]c1cccc2cccnc12 | 3.37 | 13.9 | 4.44 | 8.85 | 3.2 | 7.34 | 3.11 | 9.01 | 9.94 | > 100 | 5.16 | 13.8 | 5.12 | 29.9 | 1.72 | 7.87 | 4.03 | 10.5 | 14.5 | 44.8
2 | COc1cc([N+](=O)[O-])c2ncccc2c1[N+](=O)[O-] | 17.8 | 34.5 | 4.82 | 17.8 | 2.98 | 10.5 | 6.07 | 24.6 | 2.8 | 10.8 | 16.4 | 31.1 | 3.72 | 15.3 | 4.17 | 12.3 | 13.2 | 27.1 | 12.6 | 25.4
3 | Nc1ccc2c(c1)c(N)nn2C(=O)Nc1ccc(Cc2ccccc2)cc1 | 6.58 | 57.1 | 4.17 | 14.8 | 3.34 | 15.1 | 4.64 | 23.8 | 17.4 | 75.1 | 22.6 | 60.5 | 13 | 30.7 | 26.1 | 48.5 | 13.7 | 27.8 | 15.3 | 37.7
4 | N=C1C=C(N)C(=O)c2[nH]c(=O)ccc21 |  | 4.99 |  | 35.8 |  | 3.21 |  | 6.95 |  | 4.86 |  | 4.78 |  | 3.59 |  | 4.48 |  | 36.8 |  | 26.7
5 | C/C=C1\C(=O)OC2CCN3CCC(COC(=O)C(C)(O)C(C)C1O)C23 (stereo not given) |  | > 100 |  | > 100 |  | > 100 |  | > 100 |  | > 100 |  | > 100 |  | > 100 |  | > 100 |  | > 100 |  | > 100
6 | Nc1ccc(S(=O)(=O)Nc2cnc3c(Cl)cccc3n2)cc1 |  | > 750 | 149 | > 663 | 99.6 | 709 | > 77.9 | > 750 |  | 629 | > 80.7 | > 750 |  | 704 |  | 707 | > 69.4 | 723 |  | 163
7 | COc1ccc(CCc2cc(OC)c(OC)c(OC)c2)cc1 |  | 88.8 |  | 2.82 |  | 5.77 |  | 9.82 |  | > 100 |  | > 100 |  | 19.6 |  | 24.2 |  | > 61.3 |  | > 32.2
8 | CC/C=C\C/C=C\C[C@H](O)C/C=C1/C(=O)C=C[C@@H]1C/C=C\CCCC(=O)OC | 2.4 | 5.62 | 2.03 | 3.48 | 1.8 | 5.02 | 3.2 | 10.7 | 1.78 | 7.41 | 2.75 | 6.94 | 2.57 | 11 | 1.72 | 3.79 | 1.78 | 4 | 5.27 | 15
9 | CC1=NN(C(=O)c2ccccc2O)C(=O)/C1=C/c1cccc([N+](=O)[O-])c1 |  | > 100 |  | > 100 |  | > 100 |  | > 100 |  | > 100 |  | > 100 |  | > 100 |  | > 21.9 |  | > 100 |  | > 100
10 | COc1cc(/C=C(\C#N)C(N)=C(C#N)C#N)cc(O)c1O |  | > 100 |  | > 100 |  | > 100 |  | > 100 |  | > 100 |  | > 100 |  | > 100 |  | > 100 |  | > 100 |  | > 100
11 | CC1(C)OC2C(COS(N)(=O)=O)SC(n3cnc4cncnc43)C2O1 (stereo not given) | > 100 | > 100 | > 100 | > 100 | > 100 | > 100 | > 100 | > 100 | > 100 | > 100 | > 100 | > 100 | > 100 | > 100 | > 100 | > 100 | > 100 | > 100 | > 100 | > 100
12 | O=C1CN(/N=C/c2ccc(-c3ccc(F)cc3)o2)C(=O)N1 |  | > 100 |  | > 100 |  | > 100 |  | > 100 |  | > 100 |  | > 100 |  | > 100 |  | > 100 |  | 83.6 |  | > 100
13 | Oc1[nH]c2cc(Cl)ccc2c1/C=c1/ccc2c(c1)N=C(c1cc(F)cc(F)c1)N=2 | 1.64 | 5.44 | 4.86 | 17.2 | 2.2 | 7.06 | 1.64 | 6.77 | 2.03 | 6.75 | 6.34 | 21.5 | 2.35 | 11.7 | 2.08 | 7.03 | 2.78 | 13.6 | 2.38 | 7.95
